The record followed here is patent US12180187B2, “1-phenyl-5-azinylpyrazolyl-3-oxyalkyl acids and their use for controlling unwanted plant growth” (BAYER AKTIENGESELLSCHAFT, priority 2019, dated 2024).

In assay [1] the test system is LOLRI. Kind of assay: Post-emergence action against LOLRI, 1.28 kg/ha. It is filed as in vivo, Lolium rigidum. As to conditions: dosage 1280 g/ha, visual rating about 3 weeks after treatment vs untreated controls. A digest of the protocol: (§1)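 Percent activity was scored visually ~3 wk post-spray relative to untreated plants. Treatment was post-emergence at the one-leaf stage using WP/EC in water with 0.5% additive (600 L/ha).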

In assay [2] the test system is ABUTH. Kind of assay: Post-emergence action against ABUTH, 1.28 kg/ha. Type of assay: in vivo, Abutilon theophrasti. The settings on record: dosage 1280 g/ha, visual rating about 3 weeks after treatment vs untreated controls (100% = plants died). A digest of the protocol:
as §1

Assay [3] relates to SETVI. The experiment in a line: Pre-emergence action against SETVI, 1280 g/ha. As to conditions: visual scoring after about 3 weeks vs untreated controls, 100% = plants have died, 0% = like control plants. It is filed as in vivo, Setaria viridis. A digest of the protocol:
(§2)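 Percent herbicidal effect, judged by eye relative to untreated pots around 3 weeks after soil-surface treatment. Application: formulated compound in water, 600 L/ha, 0.5% additive, on soil over sown seeds; greenhouse.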

In assay [4] the test system is LOLRI. Kind of assay: Pre-emergence action against LOLRI, 1280 g/ha. It is filed as in vivo, Lolium rigidum. As to conditions: visual scoring after about 3 weeks vs untreated controls, 100% = plants have died, 0% = like control plants. A digest of the protocol:
as §2

Assay [5] has as its system STEME. The experiment in a line: Post-emergence action against STEME, 1.28 kg/ha. The settings on record: dosage 1280 g/ha, visual rating about 3 weeks after treatment vs untreated controls (100% = plants died). Type of assay: in vivo, Stellaria media. The method, boiled down:
as §1

Assay [6] deals with KCHSC. The experiment in a line: Pre-emergence action against KCHSC, 1280 g/ha. It is filed as in vivo, Bassia scoparia. The settings on record: scored visually after about 3 weeks vs untreated controls (100% = plants have died). A digest of the protocol: as §2
The subject of assay [7] is ECHCG. The experiment in a line: Post-emergence action against ECHCG, 1.28 kg/ha. It is filed as in vivo, Echinochloa crus-galli. As to conditions: dosage 1280 g/ha, visual rating about 3 weeks after treatment vs untreated controls. The method, boiled down: as §1
Assay [8] relates to SETVI. Kind of assay: Post-emergence action against SETVI, 1.28 kg/ha. It is filed as in vivo, Setaria viridis. The settings on record: dosage 1280 g/ha, visual rating about 3 weeks after treatment vs untreated controls. The method, boiled down:
as §1

For assay [9], the system named is AMARE. Kind of assay: Pre-emergence action against AMARE, 1280 g/ha. As to conditions: scored visually after about 3 weeks vs untreated controls (100% = plants have died). It is filed as in vivo, Amaranthus retroflexus. A digest of the protocol: as §2
Assay [10] deals with MATIN. Kind of assay: Pre-emergence action against MATIN, 1280 g/ha. The settings on record: scored visually after about 3 weeks vs untreated controls (100% = plants have died). Type of assay: in vivo, Tripleurospermum inodorum (Matricaria inodora). The method, boiled down: as §2
Assay [11] relates to ALOMY. The experiment in a line: Pre-emergence action against ALOMY, 1280 g/ha. Type of assay: in vivo, Alopecurus myosuroides. As to conditions: visual scoring after about 3 weeks vs untreated controls, 100% = plants have died, 0% = like control plants. A digest of the protocol:
as §2

In assay [12] the test system is ALOMY. The experiment in a line: Post-emergence action against ALOMY, 1.28 kg/ha. Type of assay: in vivo, Alopecurus myosuroides. As to conditions: dosage 1280 g/ha, visual rating about 3 weeks after treatment vs untreated controls. The method, boiled down: as §1
Assay [13] deals with DIGSA. The experiment in a line: Pre-emergence action against DIGSA, 1280 g/ha. Type of assay: in vivo, Digitaria sanguinalis. The settings on record: visual scoring after about 3 weeks vs untreated controls, 100% = plants have died, 0% = like control plants. A digest of the protocol:
as §2

Assay [14] relates to MATIN. Kind of assay: Post-emergence action against MATIN, 1.28 kg/ha. It is filed as in vivo, Tripleurospermum inodorum (Matricaria inodora). The settings on record: dosage 1280 g/ha, visual rating about 3 weeks after treatment vs untreated controls (100% = plants died). A digest of the protocol: as §1
Assay [15] relates to STEME. The experiment in a line: Pre-emergence action against STEME, 1280 g/ha. It is filed as in vivo, Stellaria media. The settings on record: scored visually after about 3 weeks vs untreated controls (100% = plants have died). The method, boiled down:
as §2

Assay [16] deals with POAAN. The experiment in a line: Post-emergence action against POAAN, 1.28 kg/ha. The settings on record: dosage 1280 g/ha, visual rating about 3 weeks after treatment vs untreated controls. It is filed as in vivo, Poa annua. A digest of the protocol:
as §1

The test system of assay [17] is VERPE. The experiment in a line: Post-emergence action against VERPE, 1.28 kg/ha. Type of assay: in vivo, Veronica persica. The settings on record: dosage 1280 g/ha, visual rating about 3 weeks after treatment vs untreated controls (100% = plants died). A digest of the protocol:
as §1

The subject of assay [18] is KCHSC. Kind of assay: Post-emergence action against KCHSC, 1.28 kg/ha. It is filed as in vivo, Bassia scoparia. The settings on record: dosage 1280 g/ha, visual rating about 3 weeks after treatment vs untreated controls (100% = plants died). The method, boiled down:
as §1

The test system of assay [19] is DIGSA. The experiment in a line: Post-emergence action against DIGSA, 1.28 kg/ha. It is filed as in vivo, Digitaria sanguinalis. The settings on record: dosage 1280 g/ha, visual rating about 3 weeks after treatment vs untreated controls. A digest of the protocol:
as §1

The subject of assay [20] is POAAN. The experiment in a line: Pre-emergence action against POAAN, 1280 g/ha. Type of assay: in vivo, Poa annua. As to conditions: visual scoring after about 3 weeks vs untreated controls, 100% = plants have died, 0% = like control plants. A digest of the protocol:
as §2

Assay [21] has as its system VERPE. Kind of assay: Pre-emergence action against VERPE, 1280 g/ha. Type of assay: in vivo, Veronica persica. As to conditions: scored visually after about 3 weeks vs untreated controls (100% = plants have died). A digest of the protocol:
as §2

The test system of assay [22] is ECHCG. The experiment in a line: Pre-emergence action against ECHCG, 1280 g/ha. It is filed as in vivo, Echinochloa crus-galli. The settings on record: visual scoring after about 3 weeks vs untreated controls, 100% = plants have died, 0% = like control plants. The method, boiled down: as §2
Assay [23] relates to AMARE. Kind of assay: Post-emergence action against AMARE, 1.28 kg/ha. Type of assay: in vivo, Amaranthus retroflexus. As to conditions: dosage 1280 g/ha, visual rating about 3 weeks after treatment vs untreated controls (100% = plants died). The method, boiled down:
as §1

With `CONC(=O)COc1nn(-c2ccc(F)cc2F)c(-c2ccc(F)nc2)c1Br` [Example X-024], in assay [1], the “Post-emergence action against LOLRI” value turned out to be 100%. Besides, the “Post-emergence action against ABUTH” value in assay [2] is listed as 100%. The “Pre-emergence action against SETVI” value in assay [3] was 100%. In addition, in assay [4], the “Pre-emergence action against LOLRI” value is reported as 100%. In [5], the “Post-emergence action against STEME” value is reported as 100%. Moreover, the “Pre-emergence action against KCHSC” value in [6] came to 100%. In addition, the “Post-emergence action against ECHCG” value in assay [7] stood at 100%. In addition, the “Post-emergence action against SETVI” value in assay [8] is reported as 90%. Also, the “Pre-emergence action against AMARE” value in assay [9] was found to be 100%. The “Pre-emergence action against MATIN” value in [10] was 100%. The “Pre-emergence action against ALOMY” value in assay [11] is reported as 100%. For the same compound, the “Post-emergence action against ALOMY” value in assay [12] was 100%. Further, the “Pre-emergence action against DIGSA” value in assay [13] worked out at 100%. Besides, the “Post-emergence action against MATIN” value in [14] amounted to 90%. For the same compound, in assay [15], the “Pre-emergence action against STEME” value is given as 100%. Also, in assay [16], the “Post-emergence action against POAAN” value was found to be 100%. Moreover, the “Post-emergence action against VERPE” value in assay [17] worked out at 100%. Further, the “Post-emergence action against KCHSC” value in assay [18] was determined as 90%. Besides, in [19], the “Post-emergence action against DIGSA” value is 100%. The “Pre-emergence action against POAAN” value in [20] was determined as 100%. For the same compound, the “Pre-emergence action against VERPE” value in assay [21] was found to be 100%. The “Pre-emergence action against ECHCG” value in assay [22] amounted to 100%. Moreover, the “Post-emergence action against AMARE” value in assay [23] was found to be 100%.

In the case of `CCOC(=O)COc1nn(-c2ccc(F)cc2)c(-c2ccc(F)nc2)c1C(F)(F)F` [VII-059], in [1], the “Post-emergence action against LOLRI” value was 100%. The “Pre-emergence action against SETVI” value in assay [3] was found to be 100%. In addition, the “Pre-emergence action against LOLRI” value in assay [4] was 100%. For the same compound, in [5], the “Post-emergence action against STEME” value is listed as 100%. Besides, in assay [6], the “Pre-emergence action against KCHSC” value is 100%. Moreover, in [7], the “Post-emergence action against ECHCG” value came out at 100%. Also, the “Pre-emergence action against AMARE” value in assay [9] stood at 100%. In addition, in assay [10], the “Pre-emergence action against MATIN” value was determined as 90%. Also, in [11], the “Pre-emergence action against ALOMY” value is listed as 100%. Further, the “Post-emergence action against ALOMY” value in assay [12] was found to be 100%. In assay [13], the “Pre-emergence action against DIGSA” value turned out to be 100%. In [14], the “Post-emergence action against MATIN” value was determined as 100%. The “Pre-emergence action against STEME” value in assay [15] was determined as 100%. For the same compound, the “Post-emergence action against POAAN” value in assay [16] is on record as 100%. Besides, in assay [17], the “Post-emergence action against VERPE” value is on record as 90%. For the same compound, the “Post-emergence action against KCHSC” value in [18] is given as 100%. Besides, the “Post-emergence action against DIGSA” value in [19] is on record as 100%. For the same compound, the “Pre-emergence action against POAAN” value in [20] stood at 100%. For the same compound, the “Pre-emergence action against VERPE” value in assay [21] came to 100%. Besides, the “Pre-emergence action against ECHCG” value in [22] amounted to 100%. Moreover, the “Post-emergence action against AMARE” value in assay [23] came out at 100%.

Take `CCOC(=O)COc1nn(-c2ccc(F)cc2)c(-c2ccc(F)nc2)c1Br` [VII-065]: in [1], the “Post-emergence action against LOLRI” value turned out to be 90%. Further, the “Post-emergence action against ABUTH” value in assay [2] is reported as 90%. The “Pre-emergence action against SETVI” value in [3] is listed as 100%. In assay [4], the “Pre-emergence action against LOLRI” value came out at 100%. In assay [5], the “Post-emergence action against STEME” value is on record as 100%. For the same compound, the “Pre-emergence action against KCHSC” value in assay [6] was found to be 100%. In [7], the “Post-emergence action against ECHCG” value is 100%. Also, the “Post-emergence action against SETVI” value in [8] is given as 90%. Also, in [9], the “Pre-emergence action against AMARE” value came out at 100%. In addition, the “Pre-emergence action against MATIN” value in [10] was 90%. Further, the “Pre-emergence action against ALOMY” value in assay [11] is listed as 100%. In addition, in assay [12], the “Post-emergence action against ALOMY” value is reported as 100%. The “Pre-emergence action against DIGSA” value in [13] is on record as 100%. Moreover, in assay [14], the “Post-emergence action against MATIN” value came out at 100%. In addition, in assay [15], the “Pre-emergence action against STEME” value worked out at 100%. Further, the “Post-emergence action against POAAN” value in assay [16] was found to be 100%. Besides, the “Post-emergence action against VERPE” value in assay [17] was 90%. Besides, the “Post-emergence action against KCHSC” value in assay [18] came out at 100%. Moreover, the “Post-emergence action against DIGSA” value in assay [19] worked out at 100%. Besides, in assay [20], the “Pre-emergence action against POAAN” value is listed as 100%. For the same compound, the “Pre-emergence action against VERPE” value in assay [21] turned out to be 100%. In assay [22], the “Pre-emergence action against ECHCG” value was determined as 100%. Besides, the “Post-emergence action against AMARE” value in assay [23] is on record as 90%.
